Experimental data: ChEMBL document CHEMBL1201862, “PubChem BioAssay data set” (2004)
One block for each compound: values may come before it. Active and inactive are the calls of the source.

How the values were obtained:
Leucine aminopeptidase = molecular target: T1, Leucine aminopeptidase (Plasmodium falciparum 3D7, UniProt Q8IL11); assay: P. falciparum M17LAP inhibitors, primary screen, biochemical, fluorogenic H-Leu-NHMec substrate, 1536-well (AID 1619); assay type: functional
T1 sequence (Q8IL11 whole entry): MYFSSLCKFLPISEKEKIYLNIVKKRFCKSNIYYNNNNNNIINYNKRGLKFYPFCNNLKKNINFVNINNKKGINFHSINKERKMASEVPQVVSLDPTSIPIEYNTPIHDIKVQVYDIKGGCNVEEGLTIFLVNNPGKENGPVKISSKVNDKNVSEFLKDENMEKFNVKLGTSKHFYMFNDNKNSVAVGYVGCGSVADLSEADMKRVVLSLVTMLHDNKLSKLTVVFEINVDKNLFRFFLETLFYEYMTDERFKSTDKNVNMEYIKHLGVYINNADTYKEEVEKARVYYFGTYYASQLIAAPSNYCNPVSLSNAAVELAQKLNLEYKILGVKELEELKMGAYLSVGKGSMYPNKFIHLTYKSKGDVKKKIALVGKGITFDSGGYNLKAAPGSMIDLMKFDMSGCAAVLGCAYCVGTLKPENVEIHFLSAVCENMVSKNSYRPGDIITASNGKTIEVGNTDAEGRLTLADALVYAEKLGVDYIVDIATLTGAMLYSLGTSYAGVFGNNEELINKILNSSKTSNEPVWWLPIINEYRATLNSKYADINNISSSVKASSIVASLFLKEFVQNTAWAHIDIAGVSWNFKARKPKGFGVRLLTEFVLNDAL

Large T antigen = Large T antigen (Simian virus 40, UniProt P03070); assay type: functional, Betapolyomavirus macacae;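 also: Confirmatory-stage PubChem screen for compounds that inhibit SV40 T antigen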
[1] = molecular target: T2, Intestinal-type alkaline phosphatase (Mus musculus, UniProt P24822); assay: PubChem AID 488874; assay type: functional
[2] = molecular target: T3, Intestinal-type alkaline phosphatase (Homo sapiens, UniProt P09923); assay: inhibition of human intestinal alkaline phosphatase – biochemical, luminescent, uHTS hits, set 2, dose response (AID 488793); assay type: functional
[3] = molecular target: T3, Intestinal-type alkaline phosphatase; assay: Dose Response confirmation of uHTS hits from a small molecule inhibitors of human intestinal alkaline phosphatase via a luminescent assay. [Related pubchem assays (depositor defined):AID2544, AID2574]; assay type: functional
[4] = molecular target: T4, Alkaline phosphatase, tissue-nonspecific isozyme (Homo sapiens, UniProt P05186); assay: inhibition of tissue-nonspecific alkaline phosphatase – biochemical, dose response (AID 488882); assay type: functional
T4 sequence (P05186 whole entry): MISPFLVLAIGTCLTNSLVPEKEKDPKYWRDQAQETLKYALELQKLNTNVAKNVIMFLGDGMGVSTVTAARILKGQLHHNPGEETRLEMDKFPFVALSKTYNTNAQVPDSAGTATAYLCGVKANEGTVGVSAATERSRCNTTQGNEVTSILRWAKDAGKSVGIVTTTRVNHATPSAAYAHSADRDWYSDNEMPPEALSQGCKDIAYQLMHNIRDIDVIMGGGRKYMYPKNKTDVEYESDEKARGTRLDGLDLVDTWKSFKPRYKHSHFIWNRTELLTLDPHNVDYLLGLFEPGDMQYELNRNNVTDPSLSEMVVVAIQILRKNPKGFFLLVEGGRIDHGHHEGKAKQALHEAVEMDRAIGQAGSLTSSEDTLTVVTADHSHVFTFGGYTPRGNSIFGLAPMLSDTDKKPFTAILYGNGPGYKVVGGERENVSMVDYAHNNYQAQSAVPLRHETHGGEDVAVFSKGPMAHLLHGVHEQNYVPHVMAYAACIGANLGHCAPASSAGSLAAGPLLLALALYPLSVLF

Tumor necrosis factor [5] = molecular target: T5, Tumor necrosis factor (Homo sapiens, UniProt P01375); assay: analog potency on TNFa NF-kB signaling – cell-based, revised, SAR follow-up (AID 2337); assay type: functional
[6] = molecular target: T6, Nucleotide-binding oligomerization domain-containing protein 1 (Homo sapiens, UniProt Q9Y239); assay: SAR analysis of compounds that inhibit NOD1 - Set 3. [Related pubchem assays (depositor defined):AID1566, AID1575, AID1578, AID1849, AID1852, AID2333, AID2335, AID2466]; assay type: functional
T6 sequence (Q9Y239 whole entry): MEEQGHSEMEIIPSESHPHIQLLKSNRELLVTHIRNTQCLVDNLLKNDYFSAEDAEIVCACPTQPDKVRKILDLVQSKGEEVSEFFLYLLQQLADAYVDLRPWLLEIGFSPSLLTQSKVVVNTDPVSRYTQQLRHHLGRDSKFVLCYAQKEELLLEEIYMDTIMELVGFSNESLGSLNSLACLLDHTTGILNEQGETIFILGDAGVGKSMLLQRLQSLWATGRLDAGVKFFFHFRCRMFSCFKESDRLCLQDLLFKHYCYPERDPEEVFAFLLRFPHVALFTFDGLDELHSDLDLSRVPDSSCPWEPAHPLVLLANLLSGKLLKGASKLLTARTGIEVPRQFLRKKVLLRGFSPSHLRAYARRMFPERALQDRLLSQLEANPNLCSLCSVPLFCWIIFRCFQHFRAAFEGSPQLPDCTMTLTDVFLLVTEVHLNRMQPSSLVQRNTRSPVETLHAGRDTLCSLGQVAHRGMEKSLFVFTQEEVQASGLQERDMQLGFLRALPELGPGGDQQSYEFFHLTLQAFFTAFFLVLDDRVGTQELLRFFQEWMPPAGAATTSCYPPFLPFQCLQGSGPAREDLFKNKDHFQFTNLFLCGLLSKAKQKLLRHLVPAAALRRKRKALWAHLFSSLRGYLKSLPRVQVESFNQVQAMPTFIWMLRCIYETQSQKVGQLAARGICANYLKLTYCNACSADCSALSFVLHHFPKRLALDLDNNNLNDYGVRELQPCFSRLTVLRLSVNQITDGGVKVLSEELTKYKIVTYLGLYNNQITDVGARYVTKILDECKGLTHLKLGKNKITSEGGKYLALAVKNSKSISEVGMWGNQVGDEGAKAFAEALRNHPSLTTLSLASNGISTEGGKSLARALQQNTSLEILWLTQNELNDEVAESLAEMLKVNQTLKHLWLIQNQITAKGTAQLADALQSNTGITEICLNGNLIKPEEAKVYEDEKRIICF

Tumor necrosis factor [7] = molecular target: T5, Tumor necrosis factor; assay: analog potency on TNFa NF-kB signaling – cell-based, set 3, SAR follow-up (AID 2801); assay type: functional
HEK293 [8] = assay: SAR analysis of compounds that are cytotoxic to HEK293 - Set 3. [Related pubchem assays (depositor defined):AID1575, AID1578, AID1848, AID1849, AID2001, AID2333, AID2334, AID2335, AID2337, AID2469]; assay type: functional, cell-based; details: Homo sapiens
[9] = molecular target: Nucleotide-binding oligomerization domain-containing protein 2 (Homo sapiens, UniProt Q9HC29); assay: inhibition of MDP-driven NOD2 NF-kB reporter – cell-based, set 3, SAR follow-up (AID 2799); assay type: functional
HEK293 [10] = assay: cells; details: Homo sapiens
[11] = molecular target: T3, Intestinal-type alkaline phosphatase; assay: activation of human intestinal alkaline phosphatase – biochemical, dose response (AID 488873); assay type: functional
[12] = molecular target: T2, Intestinal-type alkaline phosphatase; assay: mouse intestinal alkaline phosphatase activators, dose response, biochemical, luminescence, uHTS hits (AID 488783); assay type: functional
[13] = molecular target: T4, Alkaline phosphatase, tissue-nonspecific isozyme; assay: activation of tissue-nonspecific alkaline phosphatase – biochemical, TNAP isozyme, mouse IAP uHTS hits, selectivity assay for mouse IAP activator project, dose response (AID 488880); assay type: functional

T3 sequence (P09923 whole entry): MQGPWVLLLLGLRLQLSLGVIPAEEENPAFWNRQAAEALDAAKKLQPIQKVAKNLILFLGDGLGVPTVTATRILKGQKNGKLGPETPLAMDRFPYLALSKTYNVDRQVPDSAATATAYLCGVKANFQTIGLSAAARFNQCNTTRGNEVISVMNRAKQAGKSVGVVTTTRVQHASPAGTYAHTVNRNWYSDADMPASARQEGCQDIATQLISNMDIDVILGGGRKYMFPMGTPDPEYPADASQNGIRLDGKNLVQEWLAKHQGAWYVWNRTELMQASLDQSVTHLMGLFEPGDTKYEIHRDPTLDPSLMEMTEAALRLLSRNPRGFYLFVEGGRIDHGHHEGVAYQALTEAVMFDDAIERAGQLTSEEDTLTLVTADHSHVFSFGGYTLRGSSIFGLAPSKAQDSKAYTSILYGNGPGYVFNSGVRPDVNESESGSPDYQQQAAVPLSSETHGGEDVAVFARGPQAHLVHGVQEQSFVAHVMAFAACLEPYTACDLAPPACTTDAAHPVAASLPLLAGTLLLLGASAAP
T5 sequence (P01375 whole entry, the tested form may be a part): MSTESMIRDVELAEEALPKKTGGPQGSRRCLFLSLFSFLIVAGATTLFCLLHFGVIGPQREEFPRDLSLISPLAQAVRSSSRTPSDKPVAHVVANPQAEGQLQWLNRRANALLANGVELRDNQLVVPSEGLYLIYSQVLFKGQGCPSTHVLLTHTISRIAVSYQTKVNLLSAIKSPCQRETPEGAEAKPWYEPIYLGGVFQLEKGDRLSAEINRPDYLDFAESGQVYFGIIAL
T2 sequence (P24822 whole entry): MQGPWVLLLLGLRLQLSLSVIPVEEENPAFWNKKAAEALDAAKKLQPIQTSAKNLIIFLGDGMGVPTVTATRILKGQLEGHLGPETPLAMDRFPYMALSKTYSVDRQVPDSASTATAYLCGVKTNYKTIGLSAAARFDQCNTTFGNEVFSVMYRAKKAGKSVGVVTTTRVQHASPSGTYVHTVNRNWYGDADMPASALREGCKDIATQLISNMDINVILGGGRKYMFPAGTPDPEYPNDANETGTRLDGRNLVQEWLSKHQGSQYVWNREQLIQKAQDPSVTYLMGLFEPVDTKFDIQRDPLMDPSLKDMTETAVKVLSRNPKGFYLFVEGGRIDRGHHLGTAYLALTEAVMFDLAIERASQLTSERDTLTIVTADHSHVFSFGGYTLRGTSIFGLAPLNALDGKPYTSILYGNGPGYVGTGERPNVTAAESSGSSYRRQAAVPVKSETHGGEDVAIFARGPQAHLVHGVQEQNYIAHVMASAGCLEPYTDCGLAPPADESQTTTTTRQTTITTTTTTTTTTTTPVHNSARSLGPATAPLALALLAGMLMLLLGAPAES
Sequence of Nucleotide-binding oligomerization domain-containing protein 2 (Q9HC29 whole entry, the tested form may be a part): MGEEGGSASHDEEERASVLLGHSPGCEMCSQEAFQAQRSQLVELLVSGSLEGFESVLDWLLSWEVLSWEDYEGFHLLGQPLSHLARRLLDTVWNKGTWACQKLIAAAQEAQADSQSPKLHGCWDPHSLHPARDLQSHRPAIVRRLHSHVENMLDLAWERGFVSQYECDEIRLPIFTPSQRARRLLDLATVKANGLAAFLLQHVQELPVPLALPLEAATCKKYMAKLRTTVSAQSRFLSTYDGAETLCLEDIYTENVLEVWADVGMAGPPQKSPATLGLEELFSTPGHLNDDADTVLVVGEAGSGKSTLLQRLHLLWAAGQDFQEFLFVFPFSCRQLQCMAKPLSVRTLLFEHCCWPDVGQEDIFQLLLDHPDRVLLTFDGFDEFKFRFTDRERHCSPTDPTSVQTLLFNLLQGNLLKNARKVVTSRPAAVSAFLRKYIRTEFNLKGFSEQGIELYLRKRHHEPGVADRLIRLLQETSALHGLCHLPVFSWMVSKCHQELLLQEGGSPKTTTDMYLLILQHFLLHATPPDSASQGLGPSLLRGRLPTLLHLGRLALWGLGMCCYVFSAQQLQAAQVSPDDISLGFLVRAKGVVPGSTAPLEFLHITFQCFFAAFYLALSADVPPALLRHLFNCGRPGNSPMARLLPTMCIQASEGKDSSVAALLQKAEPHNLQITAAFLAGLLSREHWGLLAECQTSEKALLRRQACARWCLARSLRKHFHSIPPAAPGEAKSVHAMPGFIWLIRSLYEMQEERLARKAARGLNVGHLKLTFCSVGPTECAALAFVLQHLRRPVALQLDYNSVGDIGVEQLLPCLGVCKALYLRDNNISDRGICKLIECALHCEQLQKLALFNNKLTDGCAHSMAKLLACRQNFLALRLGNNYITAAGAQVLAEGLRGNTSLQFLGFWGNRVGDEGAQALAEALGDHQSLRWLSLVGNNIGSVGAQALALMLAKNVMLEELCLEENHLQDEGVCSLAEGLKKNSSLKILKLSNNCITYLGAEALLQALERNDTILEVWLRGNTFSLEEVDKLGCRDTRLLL
Sequence of Large T antigen (P03070 whole entry): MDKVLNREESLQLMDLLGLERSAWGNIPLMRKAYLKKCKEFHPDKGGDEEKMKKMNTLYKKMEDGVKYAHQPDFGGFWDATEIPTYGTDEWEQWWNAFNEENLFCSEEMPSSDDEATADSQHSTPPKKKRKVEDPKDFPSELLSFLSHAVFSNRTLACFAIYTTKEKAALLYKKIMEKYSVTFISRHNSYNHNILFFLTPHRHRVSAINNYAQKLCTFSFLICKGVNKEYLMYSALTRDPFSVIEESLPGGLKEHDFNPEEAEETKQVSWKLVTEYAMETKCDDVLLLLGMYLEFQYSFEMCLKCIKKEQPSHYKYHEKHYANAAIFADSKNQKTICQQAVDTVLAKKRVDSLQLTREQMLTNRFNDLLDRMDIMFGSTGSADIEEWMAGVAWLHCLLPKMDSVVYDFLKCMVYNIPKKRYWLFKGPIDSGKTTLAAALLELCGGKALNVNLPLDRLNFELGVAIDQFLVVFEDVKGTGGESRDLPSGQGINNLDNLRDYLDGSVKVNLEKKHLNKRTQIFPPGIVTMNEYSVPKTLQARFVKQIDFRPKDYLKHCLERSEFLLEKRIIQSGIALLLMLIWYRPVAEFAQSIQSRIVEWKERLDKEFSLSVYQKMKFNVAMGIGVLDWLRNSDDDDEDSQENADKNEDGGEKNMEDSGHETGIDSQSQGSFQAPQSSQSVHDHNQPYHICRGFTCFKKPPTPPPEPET

IC50 (Leucine aminopeptidase): 48.2 µM (active)
IC50 (Large T antigen): 9.8 µM (active)
IC50 [1]: 3.29 µM (active)
IC50 [2]: 0.891 µM (active)
IC50 [3]: 3.15 µM (active)
IC50 [4]: > 100 µM (inactive)
Compound: O=C(O)C1OC(Oc2c(-c3ccc(O)c(O)c3)oc3cc(O)cc(O)c3c2=O)C(O)C(O)C1O (stereo not given)

Compound: Nc1cc(NC(=O)c2ccc3ccccc3c2O)ccc1Cl
IC50 (Tumor necrosis factor [5]): > 20 µM (inactive)
IC50 [6]: > 20 µM (inactive)
IC50 (Tumor necrosis factor [7]): > 20 µM (inactive)
IC50 (HEK293 [8]): > 20 µM (inactive)
IC50 [9]: > 20 µM (inactive)
IC50 (HEK293 [10]): > 20 µM (inactive)

EC50 [11]: 50.4 µM (active)
EC50 [12]: 54.1 µM (active)
EC50 [13]: 81.8 µM (active)
Compound: O=C1CC(c2ccc(O)c(O)c2)Oc2cc(O)cc(O)c21 (stereo not given)
